Measurements reported in ChEMBL document CHEMBL3638784, “Fused bicyclic oxazolidinone CETP inhibitor” (2014).

Molecular target: T1, Cholesteryl ester transfer protein (Homo sapiens, UniProt P11597)
T1 sequence (P11597 whole entry): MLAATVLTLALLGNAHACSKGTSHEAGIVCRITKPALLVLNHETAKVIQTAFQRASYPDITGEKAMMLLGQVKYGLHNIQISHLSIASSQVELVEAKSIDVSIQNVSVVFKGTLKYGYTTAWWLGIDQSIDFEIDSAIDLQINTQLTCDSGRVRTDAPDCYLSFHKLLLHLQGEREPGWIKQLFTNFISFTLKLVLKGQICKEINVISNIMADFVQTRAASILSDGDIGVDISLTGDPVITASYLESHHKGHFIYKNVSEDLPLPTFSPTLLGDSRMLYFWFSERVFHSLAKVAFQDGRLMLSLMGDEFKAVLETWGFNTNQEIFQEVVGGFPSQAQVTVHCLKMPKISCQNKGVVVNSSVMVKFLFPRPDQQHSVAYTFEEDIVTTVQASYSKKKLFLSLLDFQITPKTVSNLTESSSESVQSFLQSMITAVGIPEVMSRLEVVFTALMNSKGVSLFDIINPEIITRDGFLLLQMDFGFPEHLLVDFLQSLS
Assay: Scintillation Proximity Assay (SPA): First, low density lipoprotein (LDL) (Meridian) was biotinylated by incubating LDL with biotin for 1 hour on ice, after which it was dialyzed to remove free biotin. Then compounds at varying concentrations were incubated with 15 nM CETP (reagent production group, In Vitro Pharmacology, MRL Rahway) and 50 ug/ml of the biotinylated LDL in 50 mM HEPES, 150 mM NaCl, pH 7.4, for 1 hour at 37° C. The reaction was started by adding 3H-cholesterol ester high density lipoprotein (HDL) (American Radiochemicals Corp) at a concentration of ~0.6 nM. The reaction proceeded for 2 hours at 37° C., after which time it was quenched by the addition of 12% acetic acid. PVT streptavadin-coated scintillation proximity beads, which had been brought to room temperature, were then added at a concentration of 4 mg/ml. The assay was then mixed and counted after one half hour in a Microbeta plate reader.

## N#Cc1cccc(-c2ccc(C(F)(F)F)cc2[C@@H]2CC[C@H]3[C@@H](c4cc(C(F)(F)F)cc(C(F)(F)F)c4)OC(=O)N23)c1
  IC50: 177 nM
